Results reported in PubChem BioAssay AID192 (DTP/NCI, 2004).
Toxic doses and inconclusive results are not listed. How the source made its calls: active means survival T/C of 150% or more; inactive means T/C below 125% in these data.

Tested on: BDF1 mice, B16 melanoma ip, median survival T/C
Assay: NCI In Vivo Anticancer Drug Screen. Data for tumor model B16 Melanoma (intraperitoneal) in B6D2F1 (BDF1) mice
Details: endpoint: median survival time, higher = longer survival
How it was run: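 In this screen, activity was judged from survival or tumor size in treated versus vehicle-treated tumor-bearing mice, reported as T/C.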

[1] = dose: 100.0 mg/kg/injection, schedule: Q01DX009 (ip), vehicle: Klucel (hydroxypropylcellulose) (HPC)
[2] = dose: 200.0 mg/kg/injection, schedule: Q01DX009 (ip), vehicle: Klucel (hydroxypropylcellulose) (HPC)
[3] = dose: 400.0 mg/kg/injection, schedule: Q01DX009 (ip), vehicle: Klucel (hydroxypropylcellulose) (HPC)
[4] = dose: 25.0 mg/kg/injection, schedule: Q01DX009 (ip), vehicle: Klucel (hydroxypropylcellulose) (HPC)
[5] = dose: 50.0 mg/kg/injection, schedule: Q01DX009 (ip), vehicle: Klucel (hydroxypropylcellulose) (HPC)

Measured: T/C

O=C(O)C(=O)O.O=C([O-])C(=O)[O-].O=C([O-])C(=O)[O-].[NH-]CC[NH-].[NH-]CC[NH-].[NH-]CC[NH-].[Ru+4].[Ru+5]
inactive: dose: 12.5 mg/kg/injection, schedule: Q04DX003 (ip), vehicle: water 112 % of control | dose: 25.0 mg/kg/injection, schedule: Q04DX003 (ip), vehicle: water 107 % of control

Cc1ccc([N+](=O)[O-])c(C)c1
inactive: [1] 94 % of control | [2] 102 % of control | [3] 94 % of control

Cc1cccc(CN)n1
inactive: dose: 50.0 mg/kg/injection, schedule: Q01DX009 (ip), vehicle: saline 105 % of control | dose: 100.0 mg/kg/injection, schedule: Q01DX009 (ip), vehicle: saline 118 % of control

O=C(/C=C/c1ccc2c(c1)OCO2)c1ccc2c(c1)OCO2
inactive: [1] 100 % of control | [2] 110 % of control | [3] 117 % of control

O=C(Nc1ccccc1F)c1ccc(C(=O)Nc2ccccc2F)cc1
inactive: dose: 12.5 mg/kg/injection, schedule: Q01DX009 (ip), vehicle: Klucel (hydroxypropylcellulose) (HPC) 100 % of control | [4] 105 % of control | [5] 101 % of control

CCCCCCCCCCCCCCCCCCOCC(CO)OC (stereo unspecified)
inactive: dose: 25.0 mg/kg/injection, schedule: Q01DX009 (ip), vehicle: saline with Tween-80 102 % of control | dose: 50.0 mg/kg/injection, schedule: Q01DX009 (ip), vehicle: saline with Tween-80 100 % of control | dose: 100.0 mg/kg/injection, schedule: Q01DX009 (ip), vehicle: saline with Tween-80 98 % of control | dose: 200.0 mg/kg/injection, schedule: Q01DX009 (ip), vehicle: saline with Tween-80 92 % of control

O=C(O)C(=O)O.[U]
inactive: dose: 4.0 mg/kg/injection, schedule: Q01DX009 (ip), vehicle: Klucel (hydroxypropylcellulose) (HPC) 88 % of control | dose: 8.0 mg/kg/injection, schedule: Q01DX009 (ip), vehicle: Klucel (hydroxypropylcellulose) (HPC) 93 % of control | dose: 16.0 mg/kg/injection, schedule: Q01DX009 (ip), vehicle: Klucel (hydroxypropylcellulose) (HPC) 87 % of control

C/C=C/CC(C/C=C/C)C1CC[N-]CC1.C/C=C/CC(C/C=C/C)C1CC[N-]CC1.[Cl][Pt+2]([Cl])([Cl])[Cl]
inactive: dose: 1.56 mg/kg/injection, schedule: Q01DX009 (ip), vehicle: other 97 % of control | dose: 3.13 mg/kg/injection, schedule: Q01DX009 (ip), vehicle: other 97 % of control | dose: 6.25 mg/kg/injection, schedule: Q01DX009 (ip), vehicle: other 100 % of control | dose: 12.5 mg/kg/injection, schedule: Q01DX009 (ip), vehicle: other 97 % of control | dose: 25.0 mg/kg/injection, schedule: Q01DX009 (ip), vehicle: other 96 % of control

CCOC(=O)CN1CCC2CC1c1c([nH]c3ccccc13)C2c1cc2c(cc1OC)N(C)C1C(O)(C(=O)OC)C(OC(C)=O)C3(CC)C=CCN4CCC21C43 (stereo unspecified)
inactive: dose: 0.06 mg/kg/injection, schedule: Q01DX009 (ip), vehicle: other 96 % of control | dose: 0.13 mg/kg/injection, schedule: Q01DX009 (ip), vehicle: other 108 % of control | dose: 0.5 mg/kg/injection, schedule: Q01DX009 (ip), vehicle: other 96 % of control | dose: 1.0 mg/kg/injection, schedule: Q01DX009 (ip), vehicle: other 104 % of control | dose: 2.0 mg/kg/injection, schedule: Q01DX009 (ip), vehicle: other 117 % of control

c1ccc2c(CNC3CCCCC3)c[nH]c2c1
inactive: [4] 89 % of control | [5] 97 % of control | dose: 100.0 mg/kg/injection, schedule: Q04DX003 (ip), vehicle: Klucel (hydroxypropylcellulose) (HPC) 92 % of control

COc1cc2c(cc1OC)C(c1ccc(O)c(O)c1)CNC2 (stereo unspecified)
inactive: dose: 50.0 mg/kg/injection, schedule: Q04DX003 (ip), vehicle: saline with Tween-80 99 % of control | dose: 100.0 mg/kg/injection, schedule: Q04DX003 (ip), vehicle: saline with Tween-80 89 % of control | dose: 200.0 mg/kg/injection, schedule: Q04DX003 (ip), vehicle: saline with Tween-80 90 % of control
